Measurements published in ChEMBL document CHEMBL5321222, “N(14)-substituted evodiamine derivatives as dual topoisomerase 1/tubulin-Inhibiting anti-gastrointestinal tumor agents” (Eur J Med Chem, 2023).
pIC50: −log10 of the molar value. The source made the active and inactive calls. The rule behind the calls is not given here.

Assays:
RKO [1] = assay: Antiproliferative activity against human RKO cells assessed as reduction in cell viability incubated for 72 hrs by MTT assay; type: functional, cell-based
HGC-27 = assay: Antiproliferative activity against human HGC-27 cells assessed as reduction in cell viability incubated for 72 hrs by MTT assay; type: functional, cell-based; conditions: HGC-27, 72 h
GES1 = assay: Antiproliferative activity against human GES1 cells assessed as reduction in cell viability incubated for 72 hrs by MTT assay; type: functional, cell-based; conditions: GES1, 72 h
LoVo = assay: Antiproliferative activity against human LoVo cells assessed as reduction in cell viability incubated for 72 hrs by MTT assay; type: functional, cell-based
MGC-803 [2] = assay: Antiproliferative activity against human MGC-803 cells assessed as reduction in cell viability incubated for 72 hrs by MTT assay; type: functional, cell-based; conditions: MGC-803, 72 h
SGC-7901 = assay: Antiproliferative activity against human SGC-7901 cells assessed as reduction in cell viability incubated for 72 hrs by MTT assay; type: functional, cell-based; conditions: SGC-7901, 72 h
SW480 = assay: Antiproliferative activity against human SW480 cells assessed as reduction in cell viability incubated for 72 hrs by MTT assay; type: functional, cell-based; conditions: SW480, 72 h
RKO [3] = assay: Induction of morphological changes in human RKO cells at 0.2 uM incubated for 24 hrs by Giemsa staining based micrscopic analysis; type: functional, cell-based
RKO [4] = assay: Induction of cell cycle arrest in human RKO cells at 0.2 uM incubated for 24 hrs by propidium iodide staining based flow cytometry analysis; type: functional
RKO [5] = assay: Induction of apoptosis in human RKO cells assessed as early apoptotic cells at 0.2 uM incubated for 24 hrs by propidium iodide and Annexin V/FITC staining based flow cytometry assay (reference value: 0.16%); type: functional
[6] = target: T1, DNA topoisomerase 1 (Homo sapiens) (UniProt P11387); assay: Inhibition of topoisomerase 1 (unknown origin) at 200 uM using PBR322 DNA as substrate incubated for 30 mins by agarose gel electrophoresis
T1 sequence (whole entry): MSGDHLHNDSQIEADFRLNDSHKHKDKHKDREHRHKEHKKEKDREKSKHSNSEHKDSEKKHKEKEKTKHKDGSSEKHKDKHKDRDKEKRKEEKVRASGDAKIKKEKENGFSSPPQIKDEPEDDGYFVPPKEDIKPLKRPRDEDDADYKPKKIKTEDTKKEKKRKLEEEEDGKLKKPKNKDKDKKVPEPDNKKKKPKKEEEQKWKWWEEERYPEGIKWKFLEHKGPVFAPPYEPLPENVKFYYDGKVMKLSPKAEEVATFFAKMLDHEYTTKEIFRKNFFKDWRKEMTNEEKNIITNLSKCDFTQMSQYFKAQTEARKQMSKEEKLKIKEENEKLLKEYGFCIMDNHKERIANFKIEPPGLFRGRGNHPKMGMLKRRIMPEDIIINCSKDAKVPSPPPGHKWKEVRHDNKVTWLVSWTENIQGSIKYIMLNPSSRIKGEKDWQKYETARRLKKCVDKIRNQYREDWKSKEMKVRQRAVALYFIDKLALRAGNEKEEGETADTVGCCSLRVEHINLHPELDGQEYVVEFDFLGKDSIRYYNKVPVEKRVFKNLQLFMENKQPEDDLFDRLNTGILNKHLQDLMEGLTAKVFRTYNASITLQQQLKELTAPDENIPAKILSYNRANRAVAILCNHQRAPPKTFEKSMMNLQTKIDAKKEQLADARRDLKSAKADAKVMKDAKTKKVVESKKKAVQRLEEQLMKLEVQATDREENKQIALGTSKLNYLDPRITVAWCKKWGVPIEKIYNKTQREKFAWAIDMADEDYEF

MGC-803 [7] = assay: Induction of apoptosis in human MGC-803 cells assessed as late apoptotic cells at 0.2 uM incubated for 24 hrs by propidium iodide and Annexin V/FITC staining based flow cytometry assay (reference value: 4.10%); type: functional
MGC-803 [8] = assay: Induction of apoptosis in human MGC-803 cells assessed as early apoptotic cells at 0.2 uM incubated for 24 hrs by propidium iodide and Annexin V/FITC staining based flow cytometry assay (reference value: 1.85%); type: functional
MGC-803 [9] = assay: Inhibition of cell […] in human MGC-803 cells at 50 nM incubated for 24 hrs by scratch wound healing assay; type: functional, cell-based
RKO [10] = assay: Inhibition of cell migration in human RKO cells assessed as reduction in tumor wound healing incubated for 24 hrs by microscopic analysis; type: functional, cell-based; conditions: dose 10-90 nM
MGC-803 [11] = assay: Induction of morphological changes in human MGC-803 cells at 0.2 uM incubated for 24 hrs by Giemsa staining based micrscopic analysis; type: functional, cell-based
MGC-803 [12] = assay: Induction of cell cycle arrest in human MGC-803 cells at 0.2 uM incubated for 24 hrs by propidium iodide staining based flow cytometry analysis; type: functional
RKO [13] = assay: Induction of apoptosis in human RKO cells assessed as late apoptotic cells at 0.2 uM incubated for 24 hrs by propidium iodide and Annexin V/FITC staining based flow cytometry assay (reference value: 0.50%); type: functional
MGC-803 [14] = assay: Antiproliferative activity against human MGC-803 cells assessed as reduction in cell viability at 90 nM incubated for 24 hrs by BrdU staining based fluorescence microscopic analysis; type: functional
RKO [15] = assay: Induction of cell cycle arrest in human RKO cells assessed as accumulation of cells at G2/M phase at 0.2 uM incubated for 24 hrs by propidium iodide staining based flow cytometry analysis; type: functional
RKO [16] = assay: Antiproliferative activity against human RKO cells assessed as reduction in cell viability at 90 nM incubated for 24 hrs by BrdU staining based fluorescence microscopic analysis; type: functional

SMILES | pIC50 (RKO [1]) | pIC50 (HGC-27) | pIC50 (GES1) | pIC50 (LoVo) | pIC50 (MGC-803 [2]) | pIC50 (SGC-7901) | pIC50 (SW480) | inhibition [6] | also measured
CC(C)N1c2ccccc2C(=O)N2CCc3c([nH]c4ccccc34)C21 (stereo unspecified) | 6.31 | 5.64 | 6.05 | 6.27 | 6.89 | 6.42 | 5.93 |  | 
CN1c2ccccc2C(=O)N2CCc3c([nH]c4ccccc34)C21 (racemic) | 4.53 | < 4.52 | < 4.52 | 4.62 | 5.07 | 4.75 | < 4.52 | Active | Activity (RKO [3]): inactive; Activity (RKO [4]): inactive; Activity (RKO [5]): 4.63%; Activity (MGC-803 [7]): 5.24%; Activity (MGC-803 [8]): 3.15%; inhibition (MGC-803 [9]): inactive; inhibition (RKO [10]): inactive; Activity (MGC-803 [11]): inactive; Activity (MGC-803 [12]): inactive; Activity (RKO [13]): 7.71%
COc1ccc(CN2c3ccccc3C(=O)N3CCc4c([nH]c5ccccc45)C32)cc1 (stereo unspecified) | 5.26 | 4.75 | 5.07 | 4.71 | 5.35 | 5.22 | < 4.52 |  | 
CCN1c2ccccc2C(=O)N2CCc3c([nH]c4ccccc34)C21 (stereo unspecified) | 6.39 | 5.67 | 6.52 | 5.92 | 6.77 | 6.37 | 6.01 | Active | 
C=C(CN1c2ccccc2C(=O)N2CCc3c([nH]c4ccccc34)C21)C(=O)OC (stereo unspecified) | < 4.52 | < 4.52 | < 4.52 | < 4.52 | 4.71 | < 4.52 | < 4.52 |  | 
O=C1c2ccccc2N(CC2CC2)C2c3[nH]c4ccccc4c3CCN12 (stereo unspecified) | 6.38 | 5.73 | 6.68 | 6.36 | 7.00 | 6.66 | 5.74 | Active | 
CC(C)CN1c2ccccc2C(=O)N2CCc3c([nH]c4ccccc34)C21 (stereo unspecified) | 6.06 | 5.71 | 5.97 | 6.30 | 6.80 | 6.46 | 5.66 | Active | 
CC(C)(C)CN1c2ccccc2C(=O)N2CCc3c([nH]c4ccccc34)C21 (stereo unspecified) | 5.88 | < 5.52 | 5.77 | 5.71 | 6.04 | 5.92 | 5.74 |  | 
C/C=C/C(=O)N1c2ccccc2C(=O)N2CCc3c([nH]c4ccccc34)C21 (stereo unspecified) | 4.99 | 5.36 | 4.87 | < 4.52 | 4.99 | 5.02 | 5.16 |  | 
O=C1c2ccccc2N(CCC2OCCO2)C2c3[nH]c4ccccc4c3CCN12 (stereo unspecified) | < 4.52 | < 4.52 | < 4.52 | < 4.52 | 4.80 | 5.25 | < 4.52 |  | 
COc1cc2c(c(OC)c1OC)-c1ccc(OC)c(=O)cc1[C@@H](NC(C)=O)CC2 [COLCHICINE] |  |  |  | 6.64 | 5.10 | 4.76 |  |  | Activity (RKO [3]): Active; Activity (RKO [5]): 5.3%; Activity (MGC-803 [14]): Active; Activity (MGC-803 [7]): 7.63%; Activity (RKO [15]): 82.29%; Activity (MGC-803 [8]): 6.95%; Activity (MGC-803 [11]): Active; Activity (RKO [16]): Active; Activity (RKO [13]): 5.1%
